This note sets out measurements from PubChem BioAssay (NCI).

What all share (assay): DTP human tumour cell line panel, 48 h
Assay [1] deals with HS 578T breast.
Assay [2] concerns BT-549 breast.
Assay [3] has as its system HOP-18 NSCLC.
The test system of assay [4] is XF 498 CNS.
The subject of assay [5] is MDA-N.

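Five concentrations, 48 hours, 96-well plates. The concentration for 50% growth inhibition is given as GI50. TGI: concentration producing complete growth inhibition.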

As for `C[C@@H](CO)[C@@H]1CCC=C2CC[C@]3(C)[C@H](CC[C@@H]4[C@@]5(C)CCCNC(C)(C)[C@@H]5CC[C@]43C)[C@H]21`, in assay [1], the GI50 – broadly, the concentration giving 50% growth inhibition – is 2080 nM and the TGI (in general, the concentration giving total growth inhibition) came to 5.19 µM. In assay [2], the GI50 is 5.11 µM and the concentration for total growth inhibition (TGI) stood at 24.9 µM.
Regarding `COc1ccc2c(c1)C(=O)c1c-2c(Nc2ccc(Cl)cc2)nc2ccccc12`, the GI50 was 2580 nM in assay [1] and 8.46 µM in assay [2]. Also, the figures for the TGI in assay [1] and in assay [2] were 8.82 µM and 27.7 µM, respectively.
For `N#Cc1c(N)nc(N2CCOCC2)c(C#N)c1-c1cccnc1`, in that order: 66100 nM, > 100 µM, > 100 µM and > 100 µM.
With `S=c1cc(S)sc2c1c(=S)sc1nc3ccccn3c(=S)c12`, the concentration for total growth inhibition (TGI) in assay [3] and in assay [4] was > 100 µM throughout.
With `Nc1nc(-c2ccccc2)nc2c1[n+]([O-])c1ccccc1[n+]2[O-]`, the TGI in assay [1] and in assay [2] was > 100 µM each time.
Turning to `O=C(Cn1ccnc1[N+](=O)[O-])c1ccc(F)cc1`, the TGI in assay [3] and in assay [4] was > 100 µM in each case.
As to `CCNC(=O)c1cc2c(-c3cc(C(C)(C)O)ccc3Oc3c(C)cc(F)cc3C)cn(C)c(=O)c2[nH]1`, the figures for the GI50 in assay [1] and in assay [2] were 753 nM and 2.01 µM, respectively. Besides, the TGI in assay [1] was determined as 21.5 µM; in assay [2], 11.4 µM.
`COC1OC(COCc2ccc(Cl)cc2)C(OCc2ccc(Cl)cc2)C1N=[N+]=[N-]` (stereo not drawn): the TGI in assay [3] and in assay [4] was > 100 µM throughout.
On to `c1cc(CNCCN2CCNCC2)ccn1`, for which the TGI in assay [5], in assay [1] and in assay [2] was > 100 µM each time.
As to `O=C(NCc1ccc(Cn2c(=O)sn(-c3ccccc3)c2=O)cc1)OCc1ccc2c(Br)cc(Br)c(O)c2n1`, the GI50 is 1620 nM in assay [1] and 0.614 µM in assay [2]. Moreover, the TGI stood at 4.9 µM in assay [1] and 1.99 µM in assay [2].
As for `CC(C)(C)c1cc2c3c(c1)C(C(F)(F)F)(C(F)(F)F)O[Te]3(C)OC2(C(F)(F)F)C(F)(F)F`, the TGI in assay [3] and in assay [4] was > 100 µM in each case.
Regarding `COc1cc(/C=C/C(=O)c2ccc(NC(=O)CN3CCN(c4cc5c(cc4F)c(=O)c(C(=O)O)cn5C4CC4)CC3)cc2)cc(OC)c1OC`, the GI50 is 16300 nM in assay [1] and 0.405 µM in assay [2]. The figures for the TGI in assay [1] and in assay [2] were > 100 µM and 1.44 µM, respectively.
With `CC1OC(OC2C(O[C@H]3CC[C@@]4(C)C(=CC[C@H]5[C@@H]6C[C@@H]7O[C@]8(CC[C@H](C)CN8)[C@@H](C)[C@@H]7[C@@]6(C)CC[C@@H]54)C3)OC(CO)C(O)C2OC2OC(CO)C(O)C(O)C2O)C(O)C(O)C1O` (stereo partly drawn), the total growth inhibition concentration (TGI) is 36.1 µM in assay [5], 31.2 µM in assay [1] and 30.9 µM in assay [2].
With `O=[N+]([O-])c1c(Br)sc(Br)c1[N+](=O)[O-]`, in assay [1], the GI50 was 2590 nM and the TGI stood at 9.53 µM. For the same compound, in assay [2], the GI50 is 16.1 µM and the total growth inhibition concentration (TGI) amounted to 29.7 µM.
For `CC(=Nc1ccccc1)C1=C(O)C(Cc2ccccc2)NC1=O` (stereo not drawn), in that order: 35.4 nM, > 100 µM, 0.0578 µM and 0.501 µM.
Turning to `CCCCS(=O)(=O)CCC(N)C(=O)O` (stereo not drawn), the total growth inhibition concentration (TGI) in assay [5], in assay [1] and in assay [2] was > 100 µM each time.
As for `CC(=O)OC(CCC1(C)OC1COc1ccc(CCNC(=O)c2ccccc2)cc1)C(C)(C)OC(C)=O` (stereo not drawn), the TGI in assay [3] was > 100 µM.
For `CC1(C)Cc2cc(C(=O)O)c3c(c2C1=O)COCC3`, the TGI in assay [3] and in assay [4] was > 100 µM throughout.
Turning to `Cc1occc1C(=S)Nc1ccc(Cl)c(C(=O)OC(C)C2CC2)c1` (stereo not drawn), the concentration for total growth inhibition (TGI) worked out at 38.4 µM in assay [5], 69.1 µM in assay [1] and 54.5 µM in assay [2].
On to `COc1cc2c(cc1C)NC(=O)/C2=C\c1cccc(Oc2ccccc2)c1`, for which, in assay [1], the GI50 is 39100 nM and the TGI was determined as 89.8 µM. Besides, in assay [2], the GI50 is 12.8 µM and the TGI was 27.9 µM.
For `COc1ccc(Cn2cc3c(c2-c2ccc(OC)cc2)CCc2cnoc2-3)cc1`, in that order: 301 nM, 1.14 µM, 0.76 µM and > 100 µM.
For `O=C(O)c1cccc(N=Nc2c(S(=O)(=O)O)ccc3c2C(=O)c2ccccc2C3=O)c1O`, the TGI in assay [5], in assay [1] and in assay [2] was > 100 µM each time.
With `O=C1c2ccccc2C(=O)c2c1ccc(C1C(=O)c3ccccc3C1=O)c2-c1c(C2C(=O)c3ccccc3C2=O)ccc2c1C(=O)c1ccccc1C2=O`, the total growth inhibition concentration (TGI) in assay [5], in assay [1] and in assay [2] was > 100 µM in each case.
Turning to `CN(CC(=O)N(Cc1ccc(C2CCCCC2)cc1)c1ccc(C(=O)O)c(O)c1)S(=O)(=O)c1c(F)c(F)c(F)c(F)c1F`, in assay [1], the GI50 was 6920 nM and the concentration for total growth inhibition (TGI) amounted to 35.1 µM. In assay [2], the GI50 was 10.9 µM and the total growth inhibition concentration (TGI) turned out to be 23.6 µM.
For the compound `CN(C)c1ccc(Nc2cc(-c3cccc(OC(F)(F)F)c3)nc3ccc(N4CCCC4)cc23)cc1`, in assay [2], the GI50 was 1.96 µM and the TGI was 3.58 µM.
Turning to `COc1cc2c(cc1Nc1nc(Nc3ccsc3C(N)=O)c3cc[nH]c3n1)N(C(=O)CN(C)C)CCC2(C)C`, in assay [1], the GI50 is 1110 nM and the TGI is 5.13 µM. For the same compound, in assay [2], the GI50 is 2.01 µM and the TGI amounted to 5.6 µM.
Regarding `O=C(/C=C/c1cc([N+](=O)[O-])ccc1Cl)c1ccccc1`, in assay [1], the GI50 was 21200 nM and the TGI worked out at 61.7 µM. In assay [2], the GI50 is 14.5 µM and the TGI stood at 27.8 µM.
As to `CN1c2ccccc2C(C)(C)C12C=Cc1cc(O)ccc1O2` (stereo not drawn), in assay [1], the GI50 was 1970 nM and the TGI came out at 5.17 µM.
Turning to `CCc1cccc(C(C)C)c1N1C(=O)C(=O)C(c2nc3ccccc3s2)C(=O)C1=O`, the TGI in assay [3] and in assay [4] was > 50 µM in each case.
Take `COc1cc(O)c(C(=O)/C=C/c2ccc(O)cc2)c(O)c1[C@@H]1C[C@H](CCc2ccc(O)cc2)O[C@H](c2ccc(O)cc2)C1`: in assay [1], the GI50 is 3340 nM and the total growth inhibition concentration (TGI) worked out at 16.6 µM. Further, in assay [2], the GI50 is 4.36 µM and the concentration for total growth inhibition (TGI) amounted to 17.6 µM.
